From US12091425B2 (AMGEN INC., priority 2016, dated 2024)

Tests used:
[1] = target: T1, Mcl-1/Bim interaction, recombinant human Mcl-1 (171-327) (Homo sapiens, UniProt Q07820); experiment: Cell free Mcl-1: Bim Affinity Assay (Mcl-1 HTRF); assay type: binding; details: cell free Mcl-1:Bim TR-FRET, recombinant human Mcl-1 (171-327)
T1 construct: made in house
Summary of the method: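 Compounds were mixed with the protein and a biotinylated Bim peptide spanning human residues 51-76. Plates were left overnight, then TR-FRET signal was measured. A four-parameter sigmoidal model applied to duplicate competition data gave IC50.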

[2] = test system: OPM-2 human multiple myeloma cell line; experiment: Cell Viability Assay (OPM-2 10 FBS); assay type: cell-based; details: OPM-2 cells, 16 h, CellTiter-Glo
Summary of the method: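 OPM-2 myeloma cells, 3000/well in medium with 10% FBS, exposed to serially diluted compounds for 16 h at 37° C./5% CO2. Viability read by CellTiter-Glo luminescence; IC50 from 4-parameter logistic fit.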

T1 sequence (Q07820 171-327): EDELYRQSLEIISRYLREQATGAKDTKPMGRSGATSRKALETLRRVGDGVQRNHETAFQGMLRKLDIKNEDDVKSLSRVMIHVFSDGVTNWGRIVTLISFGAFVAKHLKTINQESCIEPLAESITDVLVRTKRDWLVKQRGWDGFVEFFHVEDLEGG

| SMILES | IC50 [1] | IC50 ([2]; Homo sapiens, OPM-2, 16 h) | IC50 [2] |
| --- | --- | --- | --- |
| C[C@@H]1[C@@H](C)C/C=C/[C@H](OCCO)[C@@H]2CC[C@H]2CN2C[C@@]3(CCCc4cc(Cl)ccc43)COc3ccc(cc32)C(=O)NS1(=O)=O [Example 516, (1S,3′R,6′R,7′S,8′E,11′S,12′R)-6-chloro-7′-(2-hydroxyethoxy)-11′,12′-dimethyl-3,4-dihydro-2H,15′H-spiro[naphthalene-1,22′-[20]oxa[13]thia[1,14]diazatetracyclo[14.7.2.0^3,6.0^19,24]pentacosa[8,16,18,24]tetraen]-15′-one 13′,13′-dioxide] | 0.27 nM | 72.5 nM |  |
| C[C@@H]1[C@@H](C)C/C=C/[C@H](OCCN2CC3(COC3)C2)[C@@H]2CC[C@H]2CN2C[C@@]3(CCCc4cc(Cl)ccc43)COc3ccc(cc32)C(=O)NS1(=O)=O [Example 518, (1S,3′R,6′R,7′S,8′E,11′S,12′R)-6-chloro-11′,12′-dimethyl-7′-(2-(2-oxa-6-azaspiro[3.3]hept-6-yl)ethoxy)-3,4-dihydro-2H,15′H-spiro[naphthalene-1,22′-[20]oxa[13]thia[1,14]diazatetracyclo[14.7.2.0^3,6.0^19,24]pentacosa [8,16,18,24]tetraen]-15′-one 13′,13′-dioxide] | 0.49 nM | 257 nM |  |
| C[C@@H]1[C@@H](C)C/C=C/[C@H](OCCN2C[C@@H]3C[C@H]2CO3)[C@@H]2CC[C@H]2CN2C[C@@]3(CCCc4cc(Cl)ccc43)COc3ccc(cc32)C(=O)NS1(=O)=O [Example 520, (1S,3′R,6′R,7′S,8′E,11′S,12′R)-6-chloro-11,12′-dimethyl-7′-(2-((1S,4S)-2-oxa-5-azabicyclo[2.2.1]hept-5-yl)ethoxy)-3,4-dihydro-2H,15′H-spiro[naphthalene-1,22′-[20]oxa[13]thia[1,14]diazatetracyclo[14.7.2.0^3,6.0^19,24]pentacosa [8,16,18,24]tetraen]-15′-one 13′,13′-dioxide 2,2,2-trifluoroacetic Acid] | 0.279 nM | 142 nM |  |
| C[C@@H]1[C@@H](C)C/C=C/[C@H](OCCN2C[C@H]3C[C@@H]2CO3)[C@@H]2CC[C@H]2CN2C[C@@]3(CCCc4cc(Cl)ccc43)COc3ccc(cc32)C(=O)NS1(=O)=O [Example 521, (1S,3′R,6′R,7′S,8′E,11′S,12′R)-6-chloro-11′,12′-dimethyl-7′-(2-((1R,4R)-2-oxa-5-azabicyclo[2.2.1]hept-5-yl)ethoxy)-3,4-dihydro-2H,15′H-spiro[naphthalene-1,22′-[20]oxa[13]thia[1,14]diazatetracyclo[14.7.2.0^3,6.0^19,24]pentacosa [8,16,18,24]tetraen]-15′-one 13′,13′-dioxide 2,2,2-trifluoroacetic Acid] | 0.291 nM | 166 nM |  |
| C[C@@H]1[C@@H](C)C/C=C/[C@H](OCCNC2COC2)[C@@H]2CC[C@H]2CN2C[C@@]3(CCCc4cc(Cl)ccc43)COc3ccc(cc32)C(=O)NS1(=O)=O [Example 522, (1S,3′R,6′R,7′S,8′E,11′5,12′R)-6-chloro-11′,12′-dimethyl-7′-(2-(3-oxetanylamino)ethoxy)-3,4-dihydro-2H,15′H-spiro[naphthalene-1,22′-[20]oxa[13]thia[1,14]diazatetracyclo[14.7.2.0^3,6.0^19,24]pentacosa [8,16,18,24]tetraen]-15′-one 13′,13′-dioxide 2,2,2-trifluoroacetic Acid] | 0.284 nM | 152 nM |  |
| C[C@@H]1COCCN1CCO[C@H]1/C=C/C[C@H](C)[C@@H](C)S(=O)(=O)NC(=O)c2ccc3c(c2)N(C[C@@H]2CC[C@H]21)C[C@@]1(CCCc2cc(Cl)ccc21)CO3 [Example 523, (1S,3′R,6′R,7′S,8′E,11′S,12′R)-6-chloro-11′,12′-dimethyl-7′-(2-((3R)-3-methyl-4-morpholinyl)ethoxy)-3,4-dihydro-2H,15′H-spiro[naphthalene-1,22′-[20]oxa[13]thia[1,14]diazatetracyclo[14.7.2.0^3,6.0^19,24]pentacosa [8,16,18,24]tetraen]-15′-one 13′,13′-dioxide] | 1.82 nM | 232 nM |  |
| C[C@@H]1[C@@H](C)C/C=C/[C@H](OCCN2CCS(=O)(=O)CC2)[C@@H]2CC[C@H]2CN2C[C@@]3(CCCc4cc(Cl)ccc43)COc3ccc(cc32)C(=O)NS1(=O)=O [Example 524, (1S,3′R,6′R,7′S,8′E,11′S,12′R)-6-chloro-7′-(2-(1,1-dioxido-4-thiomorpholinyl)ethoxy)-11′,12′-dimethyl-3,4-dihydro-2H,15′H-spiro[naphthalene-1,22′-[20]oxa[13]thia[1,14]diazatetracyclo[14.7.2.0^3,6.0^19,24]pentacosa [8,16,18,24]tetraen]-15′-one 13′,13′-dioxide] | 0.365 nM | 113 nM |  |
| COC1CN(CCO[C@H]2/C=C/C[C@H](C)[C@@H](C)S(=O)(=O)NC(=O)c3ccc4c(c3)N(C[C@@H]3CC[C@H]32)C[C@@]2(CCCc3cc(Cl)ccc32)CO4)C1 [Example 525, (1S,3′R,6′R,7′S,8′E,11′S,12′R)-6-chloro-7′-(2-(3-methoxy-1-azetidinyl)ethoxy)-11′,12′-dimethyl-3,4-dihydro-2H,15′H-spiro[naphthalene-1,22′-[20]oxa[13]thia[1,14]diazatetracyclo[14.7.2.0^3,6.0^19,24]pentacosa [8,16,18,24]tetraen]-15′-one 13′,13′-dioxide 2,2,2-trifluoroacetic Acid] | 0.416 nM | 186 nM |  |
| C[C@@H]1[C@@H](C)C/C=C/[C@H](OCCN2CCC2)[C@@H]2CC[C@H]2CN2C[C@@]3(CCCc4cc(Cl)ccc43)COc3ccc(cc32)C(=O)NS1(=O)=O [Example 526, (1S,3′R,6′R,7′S,8′E,11′S,12′R)-7′-(2-(1-azetidinyl)ethoxy)-6-chloro-11′,12′-dimethyl-3,4-dihydro-2H,15′H-spiro[naphthalene-1,22′-[20]oxa[13]thia[1,14]diazatetracyclo[14.7.2.0^3,6.0^19,24]pentacosa [8,16,18,24]tetraen]-15′-one 13′,13′-dioxide 2,2,2-trifluoroacetic Acid] | 1.06 nM | 862 nM |  |
| C[C@@H]1[C@@H](C)C/C=C/[C@H](OCCN2CC(F)C2)[C@@H]2CC[C@H]2CN2C[C@@]3(CCCc4cc(Cl)ccc43)COc3ccc(cc32)C(=O)NS1(=O)=O [Example 532, (1S,3′R,6′R,7′S,8′E,11′S,12′R)-6-chloro-7′-(2-(3-fluoro-1-azetidinyl)ethoxy)-11′,12′-dimethyl-3,4-dihydro-2H,15′H-spiro[naphthalene-1,22′-[20]oxa[13]thia[1,14]diazatetracyclo[14.7.2.0^3,6.0^19,24]pentacosa [8,16,18,24]tetraen]-15′-one 13′,13′-dioxide] | 0.427 nM | 156 nM |  |
| CC[N+](CC)(CC)CCO[C@H]1/C=C/C[C@H](C)[C@@H](C)S(=O)(=O)NC(=O)c2ccc3c(c2)N(C[C@@H]2CC[C@H]21)C[C@@]1(CCCc2cc(Cl)ccc21)CO3 [Example 533, 2-(((1S,3′R,6′R,7′S,8′E,11′S,12′R)-6-chloro-11′,12′-dimethyl-13′,13′-dioxido-15′-oxo-3,4-dihydro-2H-spiro[naphthalene-1,22′-[20]oxa[13]thia[1,14]diazatetracyclo[14.7.2.0^3,6.0^19,24]pentacosa [8,16,18,24]tetraen]-7′-yl)oxy)-N,N,N-triethylethanaminium 2,2,2-trifluoroacetate] | 0.583 nM | 14200 nM |  |
| C[C@@H]1[C@@H](C)C/C=C/[C@H](OCCN2CCOC[C@@H]2C)[C@@H]2CC[C@H]2CN2C[C@@]3(CCCc4cc(Cl)ccc43)COc3ccc(cc32)C(=O)NS1(=O)=O [Example 534, (1S,3′R,6′R,7′S,8′E,11′S,12′R)-6-chloro-11′,12′-dimethyl-7′-(2-((3S)-3-methyl-4-morpholinyl)ethoxy)-3,4-dihydro-2H,15′H-spiro[naphthalene-1,22′-[20]oxa[13]thia[1,14]diazatetracyclo[14.7.2.0^3,6.0^19,24]pentacosa [8,16,18,24]tetraen]-15′-one 13′,13′-dioxide] | 0.788 nM | 99.3 nM |  |
| CO[C@@H]1/C=C/[C@H](O)[C@@H]2CC[C@H]2CN2C[C@@]3(CCCc4cc(Cl)ccc43)COc3ccc(cc32)C(=O)NS(=O)(=O)CC1 [Example 536, (1S,3′R,6′R,7′S,8′E,10′S)-6-chloro-7′-hydroxy-10′-methoxy-3,4-dihydro-2H,15′H-spiro[naphthalene-1,22′-[20]oxa[13]thia[1,14]diazatetracyclo[14.7.2.0^3,6.0^19,24]pentacosa [8,16,18,24]tetraen]-15′-one 13′,13′-dioxide] | 1.99 nM | 21300 nM |  |
| COC(=O)CCC1(C)CCC=CC(O)C2CCC2CN2CC3(CCCc4cc(Cl)ccc43)COc3ccc(cc32)C(=O)NS1(=O)=O (stereo not shown) [Example 560] | 4.83 nM | 12200 nM |  |
| CC(C)OC(=O)C[C@@H]1[C@@H](C)C/C=C\[C@H](O)[C@@H]2CC[C@H]2CN2C[C@@]3(CCCc4cc(Cl)ccc43)COc3ccc(cc32)C(=O)NS1(=O)=O [Example 568] | 1.1 nM |  | 1310 nM |
| CC(C)OC(=O)C[C@@H]1[C@@H](C)/C=C\C[C@H](O)[C@@H]2CC[C@H]2CN2C[C@@]3(CCCc4cc(Cl)ccc43)COc3ccc(cc32)C(=O)NS1(=O)=O [Example 569] | 1.02 nM | 759 nM |  |
| CC(C)OC(=O)C[C@@H]1[C@@H](C)C/C=C\[C@H](O)[C@@H]2CC[C@H]2CN2C[C@@]3(CCCc4cc(Cl)ccc43)COc3ccc(cc32)C(=O)NS1(=O)=O [Example 570] | 8.44 nM |  | 3020 nM |
